In article PMC6646405, “A quantitative, high-throughput method identifies protein–glycan interactions via mass spectrometry” (Communications Biology, 2019):

How the values were obtained:
[1] = target: T1, human neuraminidase 2 (NEU2) (Homo sapiens, UniProt Q9Y3R4); assay: Time-resolved CUPRA enzyme kinetics, NEU2; type: biochemical; details: for fraction of OSmod substrate remaining (Fig2d time course): 200 mM aqueous ammonium acetate, pH 7, 25 °C
T1 construct: made in house
Description: To apply CUPRA in this capacity, two or more substrates of interest are introduced, as their corresponding OS^mod, to a solution containing the desired CAZyme. Changes in substrate concentrations, as well as those of the corresponding enzyme products, are determined from the relative abundances of OS^mod-bound ^UniPproxy measured by time-resolved ESI-MS. Because of the manner in which the substrate and product concentrations are measured, the assay is insensitive to differences in their ESI-MS response factors and, consequently, independent of the nature of the chemical modification catalyzed by the enzyme. As a result, time-resolved CUPRA eliminates the need for calibration curves or internal standards, which are generally required with ESI-MS-based enzyme kinetics assays.
Two glycosyl hydrolases, human neuraminidase 2 (NEU2) and 3 (NEU3), which preferentially cleave α2-3-linked Neu5Ac residues, were used to illustrate the ease with which time-resolved CUPRA can establish substrate specificities. We incubated libraries of the Neu5Ac-containing OS^mod with NEU2 (Fig. 2d) or NEU3 (Fig. 2e) and monitored their conversion to the corresponding desialylated OS^mod products at pH 7 and 25 °C. […] All OS^mod containing terminal α2-3-linked Neu5Ac were substrates of NEU3, with initial rates that are 10–50% that of HMO03. […] Substrates containing branching after the α2-3-linkage were poor substrates for both enzymes. […] We note, however, that previous reports have examined NEU2 and NEU3 activity under more acidic solution conditions. Furthermore, the nature of the substrate aglycone may influence the activity of human neuraminidases.
The time-resolved CUPRA measurements were performed by manually mixing aliquots of stock solutions of NEU2 or NEU3 (final concentration 2 µM), ^UniPproxy (5 µM), substrates (Si, 5 µM each) and CUPRA linker (5 µM), all in 200 mM aqueous ammonium acetate at pH 7 and 25 °C. ESI mass spectra were collected continuously at the rate of 30 scans min^−1 starting at 3 min after mixing. The adduct distributions measured for the ^UniPproxy – CUPRA linker complex ions were used to apply SWARM. The time-dependent fractional abundance of a given substrate (FS,i) (Eq. 12), which was used to represent reaction progress, was calculated from the total Ab of ^UniPproxy bound to Si and corresponding product (Pi), corrected for Si consumed prior to data acquisition.12 FS,i=Ab^UniPproxySi/Ab^UniPproxySi+Ab^UniPproxyPi

[2] = target: streptavidin homotetramer (S4) (Streptomyces avidinii, UniProt P22629); assay: CUPRA library screening against negative control streptavidin; type: binding; design: key: ratio change on GBP addition; ~1.0 = no binding (negative control); details: depletion index, 50 μM streptavidin
Sequence of streptavidin homotetramer (S4) (P22629 25-183): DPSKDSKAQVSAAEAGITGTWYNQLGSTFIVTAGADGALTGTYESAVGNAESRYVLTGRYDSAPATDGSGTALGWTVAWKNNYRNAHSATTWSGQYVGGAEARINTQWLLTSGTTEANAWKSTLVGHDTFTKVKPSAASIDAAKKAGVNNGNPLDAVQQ

T1 sequence (Q9Y3R4 whole entry): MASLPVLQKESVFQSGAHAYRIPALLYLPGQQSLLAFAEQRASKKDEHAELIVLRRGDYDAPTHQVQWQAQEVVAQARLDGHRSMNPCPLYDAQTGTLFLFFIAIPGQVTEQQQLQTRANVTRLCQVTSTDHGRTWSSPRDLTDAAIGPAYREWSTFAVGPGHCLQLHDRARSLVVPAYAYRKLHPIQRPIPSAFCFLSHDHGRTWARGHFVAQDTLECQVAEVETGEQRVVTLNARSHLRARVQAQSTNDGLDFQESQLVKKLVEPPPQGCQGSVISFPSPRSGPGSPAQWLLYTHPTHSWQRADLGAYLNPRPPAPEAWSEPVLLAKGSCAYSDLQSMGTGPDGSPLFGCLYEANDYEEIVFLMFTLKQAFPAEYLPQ

CC(=O)N[C@H]1[C@H](O[C@@H]2[C@H](O[C@]3(C(=O)O)C[C@H](O)[C@@H](NC(C)=O)[C@H]([C@H](O)[C@@H](CO)O[C@]4(C(=O)O)C[C@H](O)[C@@H](NC(C)=O)[C@H]([C@H](O)[C@H](O)CO)O4)O3)[C@@H](O)[C@H](O[C@H]3[C@H](O)[C@@H](O)[C@H](N(CCOCCOCCNC(=O)[C@H](Cc4ccccc4)NC(=O)[C@H](Cc4ccccc4)NC(=O)CCCC(=O)NCCc4ccc(S(N)(=O)=O)cc4)C(C)=O)O[C@@H]3CO)O[C@@H]2CO)O[C@H](CO)[C@H](O)[C@@H]1O [GA10, GalNAcβ1-4(Neu5Acα2-8 Neu5Acα2-3)Galβ1-4Glc-CL]
relative abundance of OSmod substrate (Fig2d time course) ([1]; time 0 min): 0.903
relative abundance of OSmod substrate (Fig2d time course) ([1]; time 1 min): 0.9038
relative abundance of OSmod substrate (Fig2d time course) ([1]; time 2 min): 0.8996
relative abundance of OSmod substrate (Fig2d time course) ([1]; time 3 min): 0.8888
relative abundance of OSmod substrate (Fig2d time course) ([1]; time 4 min): 0.9044
relative abundance of OSmod substrate (Fig2d time course) ([1]; time 7 min): 0.9102
relative abundance of OSmod substrate (Fig2d time course) ([1]; time 8 min): 0.9068
relative abundance of OSmod substrate (Fig2d time course) ([1]; time 9 min): 0.9088
relative abundance of OSmod substrate (Fig2d time course) ([1]; time 10 min): 0.9065
relative abundance of OSmod substrate (Fig2d time course) ([1]; time 11 min): 0.9097
relative abundance of OSmod substrate (Fig2d time course) ([1]; time 12 min): 0.9035
relative abundance of OSmod substrate (Fig2d time course) ([1]; time 13 min): 0.9029
relative abundance of OSmod substrate (Fig2d time course) ([1]; time 14 min): 0.9064
relative abundance of OSmod substrate (Fig2d time course) ([1]; time 15 min): 0.8954
relative abundance of OSmod substrate (Fig2d time course) ([1]; time 16 min): 0.9063
relative abundance of OSmod substrate (Fig2d time course) ([1]; time 17 min): 0.9123
relative abundance of OSmod substrate (Fig2d time course) ([1]; time 18 min): 0.9135
relative abundance of OSmod substrate (Fig2d time course) ([1]; time 19 min): 0.9061
relative abundance of OSmod substrate (Fig2d time course) ([1]; time 20 min): 0.9106
relative abundance of OSmod substrate (Fig2d time course) ([1]; time 21 min): 0.9179
relative abundance of OSmod substrate (Fig2d time course) ([1]; time 22 min): 0.9134
relative abundance of OSmod substrate (Fig2d time course) ([1]; time 23 min): 0.9095
relative abundance of OSmod substrate (Fig2d time course) ([1]; time 24 min): 0.9035
relative abundance of OSmod substrate (Fig2d time course) ([1]; time 25 min): 0.9132
relative abundance of OSmod substrate (Fig2d time course) ([1]; time 26 min): 0.907
relative abundance of OSmod substrate (Fig2d time course) ([1]; time 27 min): 0.9132
relative abundance of OSmod substrate (Fig2d time course) ([1]; time 28 min): 0.9116
relative abundance of OSmod substrate (Fig2d time course) ([1]; time 29 min): 0.9094
relative abundance of OSmod substrate (Fig2d time course) ([1]; time 30 min): 0.9084
relative abundance of OSmod substrate (Fig2d time course) ([1]; time 31 min): 0.9073
relative abundance of OSmod substrate (Fig2d time course) ([1]; time 32 min): 0.915
relative abundance of OSmod substrate (Fig2d time course) ([1]; time 33 min): 0.9164
relative abundance of OSmod substrate (Fig2d time course) ([1]; time 34 min): 0.9136
relative abundance of OSmod substrate (Fig2d time course) ([1]; time 35 min): 0.9113
relative abundance of OSmod substrate (Fig2d time course) ([1]; time 36 min): 0.9057
relative abundance of OSmod substrate (Fig2d time course) ([1]; time 37 min): 0.9031
relative abundance of OSmod substrate (Fig2d time course) ([1]; time 38 min): 0.9043
relative abundance of OSmod substrate (Fig2d time course) ([1]; time 39 min): 0.895
relative abundance of OSmod substrate (Fig2d time course) ([1]; time 40 min): 0.8976
relative abundance of OSmod substrate (Fig2d time course) ([1]; time 41 min): 0.8827
relative abundance of OSmod substrate (Fig2d time course) ([1]; time 42 min): 0.9129
relative abundance of OSmod substrate (Fig2d time course) ([1]; time 43 min): 0.905
relative abundance of OSmod substrate (Fig2d time course) ([1]; time 44 min): 0.9072
relative abundance of OSmod substrate (Fig2d time course) ([1]; time 45 min): 0.9125
relative abundance of OSmod substrate (Fig2d time course) ([1]; time 46 min): 0.9034
relative abundance of OSmod substrate (Fig2d time course) ([1]; time 47 min): 0.9131
relative abundance of OSmod substrate (Fig2d time course) ([1]; time 48 min): 0.9147
relative abundance of OSmod substrate (Fig2d time course) ([1]; time 49 min): 0.9115
relative abundance of OSmod substrate (Fig2d time course) ([1]; time 50 min): 0.9161
relative abundance of OSmod substrate (Fig2d time course) ([1]; time 51 min): 0.9162
relative abundance of OSmod substrate (Fig2d time course) ([1]; time 52 min): 0.9166
relative abundance of OSmod substrate (Fig2d time course) ([1]; time 53 min): 0.9066
relative abundance of OSmod substrate (Fig2d time course) ([1]; time 54 min): 0.9094
relative abundance of OSmod substrate (Fig2d time course) ([1]; time 55 min): 0.9043
relative abundance of OSmod substrate (Fig2d time course) ([1]; time 56 min): 0.9097
relative abundance of OSmod substrate (Fig2d time course) ([1]; time 57 min): 0.9071
relative abundance of OSmod substrate (Fig2d time course) ([1]; time 58 min): 0.9137
relative abundance of OSmod substrate (Fig2d time course) ([1]; time 59 min): 0.9089
relative abundance of OSmod substrate (Fig2d time course) ([1]; time 60 min): 0.9084
relative abundance of OSmod substrate (Fig2d time course) ([1]; time 61 min): 0.9152
relative abundance of OSmod substrate (Fig2d time course) ([1]; time 62 min): 0.9099
relative abundance of OSmod substrate (Fig2d time course) ([1]; time 63 min): 0.9041
relative abundance of OSmod substrate (Fig2d time course) ([1]; time 64 min): 0.9
relative abundance of OSmod substrate (Fig2d time course) ([1]; time 65 min): 0.9101
relative abundance of OSmod substrate (Fig2d time course) ([1]; time 66 min): 0.9104
relative abundance of OSmod substrate (Fig2d time course) ([1]; time 67 min): 0.9077
relative abundance of OSmod substrate (Fig2d time course) ([1]; time 68 min): 0.9072
relative abundance of OSmod substrate (Fig2d time course) ([1]; time 69 min): 0.9129
relative abundance of OSmod substrate (Fig2d time course) ([1]; time 70 min): 0.9057
relative abundance of OSmod substrate (Fig2d time course) ([1]; time 71 min): 0.9057
relative abundance of OSmod substrate (Fig2d time course) ([1]; time 72 min): 0.9132
relative abundance of OSmod substrate (Fig2d time course) ([1]; time 73 min): 0.9108
relative abundance of OSmod substrate (Fig2d time course) ([1]; time 74 min): 0.9071
relative abundance of OSmod substrate (Fig2d time course) ([1]; time 75 min): 0.9161
relative abundance of OSmod substrate (Fig2d time course) ([1]; time 76 min): 0.9095
relative abundance of OSmod substrate (Fig2d time course) ([1]; time 77 min): 0.9151
relative abundance of OSmod substrate (Fig2d time course) ([1]; time 78 min): 0.9122
relative abundance of OSmod substrate (Fig2d time course) ([1]; time 79 min): 0.9076
relative abundance of OSmod substrate (Fig2d time course) ([1]; time 80 min): 0.9134
relative abundance of OSmod substrate (Fig2d time course) ([1]; time 81 min): 0.9135
relative abundance of OSmod substrate (Fig2d time course) ([1]; time 82 min): 0.9162
relative abundance of OSmod substrate (Fig2d time course) ([1]; time 83 min): 0.9125
relative abundance of OSmod substrate (Fig2d time course) ([1]; time 84 min): 0.9098
relative abundance of OSmod substrate (Fig2d time course) ([1]; time 97 min): 0.9111
relative abundance of OSmod substrate (Fig2d time course) ([1]; time 98 min): 0.9062
relative abundance of OSmod substrate (Fig2d time course) ([1]; time 99 min): 0.9109
relative abundance of OSmod substrate (Fig2d time course) ([1]; time 100 min): 0.915
relative abundance of OSmod substrate (Fig2d time course) ([1]; time 101 min): 0.9087
relative abundance of OSmod substrate (Fig2d time course) ([1]; time 102 min): 0.916
relative abundance of OSmod substrate (Fig2d time course) ([1]; time 103 min): 0.9129
relative abundance of OSmod substrate (Fig2d time course) ([1]; time 104 min): 0.9139
relative abundance of OSmod substrate (Fig2d time course) ([1]; time 105 min): 0.9109
relative abundance of OSmod substrate (Fig2d time course) ([1]; time 106 min): 0.908
relative abundance of OSmod substrate (Fig2d time course) ([1]; time 107 min): 0.9138
relative abundance of OSmod substrate (Fig2d time course) ([1]; time 108 min): 0.911
relative abundance of OSmod substrate (Fig2d time course) ([1]; time 109 min): 0.9085
relative abundance of OSmod substrate (Fig2d time course) ([1]; time 110 min): 0.8819
relative abundance of OSmod substrate (Fig2d time course) ([1]; time 111 min): 0.9092
relative abundance of OSmod substrate (Fig2d time course) ([1]; time 112 min): 0.9111
relative abundance of OSmod substrate (Fig2d time course) ([1]; time 113 min): 0.9127
fraction of OSmod substrate remaining (Fig2d time course) ([1]; time 114 min, time-resolved CUPRA): 0.9126
fraction of OSmod substrate remaining (Fig2d time course) ([1]; time 115 min, time-resolved CUPRA): 0.9042
fraction of OSmod substrate remaining (Fig2d time course) ([1]; time 116 min, time-resolved CUPRA): 0.909
fraction of OSmod substrate remaining (Fig2d time course) ([1]; time 117 min, time-resolved CUPRA): 0.9097
fraction of OSmod substrate remaining (Fig2d time course) ([1]; time 118 min, time-resolved CUPRA): 0.9085
fraction of OSmod substrate remaining (Fig2d time course) ([1]; time 119 min, time-resolved CUPRA): 0.9043
fraction of OSmod substrate remaining (Fig2d time course) ([1]; time 120 min, time-resolved CUPRA): 0.904
fraction of OSmod substrate remaining (Fig2d time course) ([1]; time 121 min, time-resolved CUPRA): 0.904
fraction of OSmod substrate remaining (Fig2d time course) ([1]; time 122 min, time-resolved CUPRA): 0.904
fraction of OSmod substrate remaining (Fig2d time course) ([1]; time 123 min, time-resolved CUPRA): 0.904
fraction of OSmod substrate remaining (Fig2d time course) ([1]; time 124 min, time-resolved CUPRA): 0.904
Relative activity NEU2 ([1]; time-resolved CUPRA, 200 mM aqueous ammonium acetate pH 7, 25 °C, relative to HMO03): 0.000
average DI ([2]; mean of 4): 0.9828
DIi(50uM S4) ([2]; measurement 1 of 4): 0.9829
DIi(50uM S4) ([2]; measurement 2 of 4): 0.9821
DIi(50uM S4) ([2]; measurement 3 of 4): 0.9835
DIi(50uM S4) ([2]; measurement 4 of 4): 0.9826
